# Results from patent US11724987B2, “Compositions and methods of treating retinal disease” (Aldeyra Therapeutics, Inc., priority 2005, dated 2023).
# What was measured:
# [1] = NMR analysis of RAL reactions (Schiff base condensation and ring formation); conditions: for tau (minutes) condense: Schiff base condensation with RAL; for tau (minutes) ring: ring formation after condensation with RAL
# [2] = negative control; cited from earlier work
# [3] = vendor value; cited from earlier work
# human retinal vision = conditions: human occupational exposure, absorbed by the skin; cited from earlier work
# dark adapted rats = test: ERG analysis of dark adaptation, dose ranging protocol; assay type: in vivo, rat; conditions: i.p.
# Experimental: Dark adaptation is the recovery of visual sensitivity following exposure to light. Dark adaptation has multiple components including both fast (neuronal) processes and slow (photochemical) process. Regeneration of visual pigment is related to the slow photochemical process. Dark adaptation rates are measured for several reasons. Night blindness results from a failure to dark adapt (loss of visual light sensitivity). It is possible to find a safe dose for night vision by measuring drug effects on dark adapted visual light sensitivity.
# An electroretinogram (ERG) is used measure dark adaptation under normal vs. drug conditions. ERG is the measurement of the electric field potential emitted by retinal neurons during their response to an experimentally defined light stimulus. More specifically, ERG measures retinal field potentials at the cornea after a flash of light (e.g., 50 ms). Field strengths are 10^2 to 10^3 microvolts, originating in retinal cells.
# In a typical ERG analysis of dark adaptation experiment, every rat is dark adapted for hours to reach a consistent state of light sensitivity. […]
# The ERG measurement is taken after a specific duration of post-bleach dark recovery (e.g., 30 min) determined previously by kinetic analysis (see FIGS. 6a and 6b). […]
smiles,measurement,setting,value
CC(C)(O)c1ccccc1N [Compound 8],tau (minutes) condense,[1],122 min
same,tau (minutes) ring,[1],109 min
CCN(CC)CC(=O)Nc1c(C)cccc1C [lidocaine],Schiff base formation,[2],does not form a Schiff base
CCOC(=O)Cc1csc(N)n1 [Compound 4],calculated logP vendor,[3],1.4
CCOC(=O)c1csc(N)n1 [Compound 1],calculated logP vendor,[3],1.2
Nc1nccs1 [Compound 3],calculated logP vendor,[3],0.8
"CCOC(=O)c1cccc(N)c1 [Compound 6, tricaine methane sulfonate]",calculated logP vendor,[3],1.8
same,effect on night vision,human retinal vision,attenuates night vision reversibly
same,ERG light sensitivity of dark adapted rats,"dark adapted rats; dose ranging, FIG. 7",lowers light sensitivity of dark adapted rats in a dose dependent manner
same,duration of effect on vision,"dark adapted rats; rats, ERG",decreases after 3 hours
CC(C)(O)c1nc2ccc(Cl)cc2cc1N [Compound 9],tau (minutes) condense,[1],320 min
same,tau (minutes) ring,[1],568 min
COC(=O)c1nc(N)sc1Cl [Compound 2],calculated logP vendor,[3],1.3
